Side effects, Ratio and IC50 data for 9 molecules are collected here from US6262106A, “Adamantanecarboximidamide derivatives and their use as NMDA antagonists” (priority 1998, dated 2001).

pIC50: −log10 of the molar value. Structures can show the parent of a compound that is named as a salt.

For data set [1] the following is noted: known NMDA antagonists, administration; cited from earlier work.
Data set [2] has as its system PCP site of the NMDA receptor (cortical NMDA receptors). The experiment in a line: NMDA receptor binding, [3H]-MK-801 displacement at PCP site, rat cortical membranes. The settings on record: for Ratio: (IC50 Cortex / IC50 Cerebellum); for pIC50: rat cortex membranes, [3H]-MK-801 5 nM, 10 μM glutamate, 10 μM glycine, 120 min, room temperature. The source says: (§1) The NMDA receptor contains several distinct binding domains that can regulate opening of the cationic channel. The phencyclidine (PCP) site of the NMDA receptor can be radiolabelled with [^3 H]-(+)-5-methyl-10,11-dihydro-5H-dibenzo[a,d]cyclohepten-5,10-imine hydrogen maleate, [^3 H-MK-801]. The following describes the procedure for determining the affinity of compounds for the PCP site in rat cortical or cerebellar membranes.
(§2) Frozen rat cortex or cerebellum, homogenized in 10 volumes of ice-cold 0.32-M. sucrose is centrifuged at 1,000 g for 12 min and the supernatant stored on ice whilst the pellet is resuspended, rehomogenized and recentrifuged twice more. The three final supernatants are pooled and centrifuged at 30,000 g for 40 min at 4° C. to yield P2 pellets. These are resuspended in ice-cold distilled water, and centrifuged at 30,000 g for 50 min at 4° C. Following three further washes in distilled water, the P2 pellets are stored at -20° C. for at least 18 h. On the day of the assay, membrane pellets are thawed at room temperature, resuspended in ice-cold distilled water and centrifuged at 30,000 g for 20 min. The pellets are resuspended in 50-mM tris-HCl (pH:7.4) and recentrifuged twice more before being resuspended in tris-HCl for immediate use in the assay. Binding assays are performed at equilibrium in a total volume of 200 μL, containing [^3 H]-MK-801 (5-nM final conc.), 10-μM glutamate, 10-μM glycine, 160 μL of membrane preparation and additional drugs where appropriate. Non-specific binding is determined using MK-801 (10-μM). The assay is incubated for 120 min at room temperature. The incubation is terminated by rapid filtration through Whatman GF/B filters (pre-soaked in 0.1% PEI solution). The assay tubes and filters are washed five times with 1 mL of ice-cold assay buffer. The filters are placed in poly-Q mini vials with approximately 5 mL of scintillation fluid. The vials are then shaken and left for at least 8 h before being counted on a liquid scintillation counter. To determine the free ligand concentration 3 aliquots (20 μL) of the [^3 H]-MK-801 working solution are also counted. Concentration response data for drugs is analysed using a 4 parameter equation fitted by non-linear regression. This yields the half maximally effective drug concentration (IC50) and Hill coefficient.

In data set [3] the target is PCP site of the NMDA receptor (cerebellar NMDA receptors). Put plainly: NMDA receptor binding, [3H]-MK-801 displacement at PCP site, rat cerebellar membranes. The following applies: rat cerebellum membranes; [3H]-MK-801 5 nM; 10 μM glutamate, 10 μM glycine; 120 min, room temperature.
Text: as §1, §2

Turning to `CCc1cccc(N(C)C(N)=Nc2cccc3ccccc23)c1` [Cerestat], the side effects result in data set [1] was “perceptual and cognitive disturbances of a kind that resemble naturally-occurring psychotic states”.

Consider `C[C@]12N[C@H](Cc3ccccc31)c1ccccc12` [Dizocilpine], for which the side effects result in data set [1] was “perceptual and cognitive disturbances of a kind that resemble naturally-occurring psychotic states”.

Take `Cc1ccc(C2(C(=N)N)C3CC4CC(C3)CC2C4)cc1` (stereo not shown) [Example 4, 2-(4-Methylphenyl)-2-adamantanecarboximidamide hydrochloride]: in data set [2], the Ratio came out at 1.9 and the pIC50 is 3.98. In data set [3], this molecule had a pIC50 of 4.25.

Consider `Cc1ccccc1C1(C(=N)N)C2CC3CC(C2)CC1C3.Cl` (stereo not shown) [Example 5, 2-(2-Methylphenyl)-2-adamantanecarboximidamide hydrochloride], for which, in data set [2], the Ratio turned out to be 1.7 and the pIC50 was 4.28. Further, the pIC50 in data set [3] is 4.51.

As for `N=C(N)C1(c2ccc(F)cc2)C2CC3CC(C2)CC1C3` (stereo not shown) [Example 6, 2-(4-Fluorophenyl)-2-adamantanecarboximidamide hydrochloride], in data set [2], the Ratio turned out to be 1.8 and the negative logarithm of the IC50 (pIC50) is 4.36. In data set [3], this molecule had a negative-log IC50 (pIC50) of 4.60.

Take `N=C(N)C1(c2ccc(Cl)cc2)C2CC3CC(C2)CC1C3` (stereo not shown) [Example 7, 2-(4-Chlorophenyl)-2-adamantanecarboximidamide hydrochloride]: in data set [2], the Ratio is reported as 1.7 and the negative logarithm of the IC50 (pIC50) is 4.23. The molecule further gave a pIC50 in data set [3] of 4.47.

For the molecule `COc1ccc(C2(C(=N)N)C3CC4CC(C3)CC2C4)cc1` (stereo not shown) [Example 8, 2-(4-Methoxyphenyl)-2-adamantanecarboximidamide hydrochloride], in data set [2], the Ratio is on record as 2.0 and the pIC50 is 4.35. For the same molecule, the pIC50 in data set [3] was 4.66.

With `CNC1(c2ccccc2Cl)CCCCC1=O` (stereo not shown) [Ketamine], the side effects entry in data set [1] was “perceptual and cognitive disturbances of a kind that resemble naturally-occurring psychotic states”.

Regarding `c1ccc(C2(N3CCCCC3)CCCCC2)cc1` [PCP, phencyclidine], the side effects entry in data set [1] is “perceptual and cognitive disturbances of a kind that resemble naturally-occurring psychotic states”.

As a reminder, the pIC50 is the IC50 on a negative log10 scale, so that one unit is a factor of ten. Read a low pIC50 as a high IC50.
